The results in this text go back to patent US20220202957A1, “LONG-LASTING ANALGESIA VIA TARGETED IN VIVO EPIGENETIC REPRESSION” (The Regents of the University of California, priority 2019, published 2022).

One data set deals with NaV1.7. As to the kind of experiment: In vivo Nav1.7 repression in mice DRG (L4-L6) by qPCR after intrathecal AAV9. As to conditions: gabapentin benchmarking experiment; 24 h after carrageenan; vs AAV9-mCherry. The arrangement: species or system mouse. Here is the method:
(§1) Intrathecal AAV Injections. Anesthesia was induced with 2.5% isoflurane delivered in equal parts O2 and room air in a closed chamber until a loss of the righting reflex was observed. The lower back of mice was shaven and swabbed with 70% ethanol. Mice were then intrathecally (i.t.) injected using a Hamilton syringe and 30G needle as previously described 104 between vertebrae L4 and L5 with 5 μL of AAV for a total of 1E+12 vg/mouse. A tail flick was considered indicative of appropriate needle placement. Following injection, all mice resumed motor activity consistent with that observed prior to i.t. injection.
Tissue collection. […]
Gene Expression Analysis and qPCR. […] Relative mRNA expression was normalized to GAPDH levels and fold change was calculated using the comparative CT (AACT) method and normalized to GAPDH. Mean fold change and SD were calculated using Microsoft Excel.
Having established in vitro Nav1.7 repression, testing the effectiveness of the best ZFP-KRAB and KRAB-dCas9 constructs from the in vitro screens (Zinc-Finger-4-KRAB and KRAB-dCas9-dual-gRNA) in a carrageenan-induced model of inflammatory pain was performed. […] After 21 days, thermal pain sensitivity was measured to establish a baseline response threshold. […]

Data set [1] has as its system carrageenan-induced model of inflammatory pain. As to the kind of experiment: Carrageenan-induced inflammatory pain model, thermal paw withdrawal latency (Hargreaves test). The format is in vivo, mouse. As to conditions: gabapentin 100 mg/kg i.p. How it is done: Animals Experiments. All animal procedures were performed in accordance with protocols approved by the Institutional Animal Care and Use Committee (IACUC) of the University of California, San Diego. All mice were acquired from Jackson Laboratory. Two-month-old adult male C57BL/6 mice (25-30 g) were housed with food and water provided ad libitum, under a 12 h light/dark cycle with up to 5 mice per cage. All behavioral tests were performed during the light cycle period.
Intrathecal AAV Injections. Anesthesia was induced with 2.5% isoflurane delivered in equal parts O2 and room air in a closed chamber until a loss of the righting reflex was observed. The lower back of mice was shaven and swabbed with 70% ethanol. Mice were then intrathecally (i.t.) injected using a Hamilton syringe and 30G needle as previously described 104 between vertebrae L4 and L5 with 5 μL of AAV for a total of 1E+12 vg/mouse. A tail flick was considered indicative of appropriate needle placement. […]
Pain Models. […] Paw thickness was measured with a caliper before and 4 h after carrageenan/saline injections as an index of edema/inflammation. […]
Thermal Withdrawal Latency (Hargreaves Test): To determine the acute nociceptive thermal threshold, the Hargreaves' test was conducted using a plantar test device (Ugo Basile, Italy) 108. […] Paw withdrawal latencies were measured with a cutoff time of 30 seconds. […]

Data set [2] concerns paclitaxel-induced neuropathy. In words: Paclitaxel-induced neuropathic pain model, tactile allodynia (von Frey filaments). It counts as in vivo, mouse. To be noted: 21 days after i.t. injection, 24 h after last paclitaxel (4 x 8 mg/kg i.p.); gabapentin 100 mg/kg i.p. Here is the method:
as §1
Paclitaxel-induced neuropathy: Paclitaxel (Tocris Biosciences, 1097) was dissolved in a mixture of 1:1:18 [1 volume ethanol/1 volume Cremophor EL (Millipore, 238470)/18 volumes of sterilized 0.9% (W/V) NaCl solution]. […]
Tactile allodynia: For the BzATP pain model, tactile thresholds (allodynia) were assessed 30 minutes, 1, 2, 3, 6, 24 hours after the BzATP injection. For the Paclitaxel model, tactile thresholds (allodynia) were assessed 24 hours and 29 days after the last Paclitaxel injection. […] The 50% probability of withdrawal threshold was assessed using von Frey filaments (Seemes Weinstein von Frey anesthesiometer; Stoelting Co., Wood Dale, Ill., USA) ranging from 2.44 to 4.31 (0.04-2.00 g) in an up-down method, as previously described 107. […]

The next data set has as its system Nav1.7 transcript. As to the kind of experiment: In vitro Nav1.7 repression by qPCR in transfected Neuro2a cells. As to conditions: qPCR relative to GAPDH, KRAB-dCas9 constructs compared to the non-targeting gRNA control. The format is cell-based, mouse. Here is the method:
Mammalian Cell Culture. Neuro2a cells were grown in EMEM supplemented with 10% fetal bovine serum (FBS) and 1% Antibiotic-Antimycotic (Thermo Fisher Scientific) in an incubator at 37° C. and 5% CO2 atmosphere.
Lipid-Mediated Cell Transfections. One day prior to transfection, Neuro2a cells were seeded in a 24-well plate at a cell density of 1 or 2E+5 cells per well. […] of each plasmid was added to 25 μL of Opti-MEM medium, followed by addition of 25 μL of Opti-MEM containing 2 μL of Lipofectamine 2000. The mixture was incubated at room temperature for 15 min. The entire solution was then added to the cells in a 24-well plate and mixed by gently swirling the plate. Media was changed after 24 h, and the plate was incubated at 37° C. for 72 h in a 5% CO2 incubator. Cells were harvested, spun down, and frozen at […].
Gene Expression Analysis and qPCR. RNA from Neuro2a cells was extracted using Rneasy Kit (QIAGEN; 74104) and from DRG using Rneasy Micro Kit (QIAGEN; 74004). cDNA was synthesized from RNA using Protoscript II Reverse Transcriptase Kit (NEB; E6560L). […] Relative mRNA expression was normalized to GAPDH levels and fold change was calculated using the comparative CT (AACT) method and normalized to GAPDH. Mean fold change and SD were calculated using Microsoft Excel. […]
Background: Real-time PCR tracks product formation cycle by cycle.

For `NCC1(CC(=O)O)CCCCC1` [gabapentin], the “repression of Nav1.7 in DRG (L4-L6) by qPCR, significance” value with NaV1.7 was “significant repression of Nav1.7”. In addition, the “PWL of carrageenan-injected paws at each time point vs AAV9-mCherry control (two-way ANOVA)” value in data set [1] (30 min, 1, 2, 4, 24 h after carrageenan, AAV9 1E+12 vg/mouse i.t.) was “at the 30 minute, 1 hour, and four hour time points, but not the 24 hour time point”. The “PWL (AUC of thermal hyperalgesia) in carrageenan-injected paws vs AAV9-mCherry control” value in data set [1] (gabapentin benchmarking experiment, day 21) is reported as “significant increase in PWL”. For the same compound, the “50% tactile withdrawal threshold / tactile allodynia (von Frey)” value in data set [2] is reported as “increased withdrawal thresholds”.
On to “gRNA-2: guide RNA spacer GCAGGTGCACTCACCGGGT (SEQ ID NO: 130), used with KRAB-dCas9 (listed as DNA, chemistry not given here)”, for which the “repression of the Nav1.7 transcript” value in the data set with Nav1.7 transcript came to 56%.
